# Reference: patent US20250213705A1, “PSMA TARGETING LIGANDS AND METHODS OF USE” (Bright Peak Therapeutics AG, priority 2023, published 2025)
# pIC50, pKi: −log10 of the molar value. Numbered stars: 1 amine (or outer) side, 2 acyl side, 3 side chain; on linkers, the order of the positions; unused ones are H or OH. Square brackets hold non-standard residues; d marks the D form. Side chains are listed from the residue outwards. Peptide text beside a SMILES is read from it. 2Nal = N[C@@H](Cc1ccc2ccccc2c1)C(=O)O; Trx = NC[C@H]1CC[C@H](C(=O)O)CC1; PEG3 = NCCOCCOCCOCCC(=O)O; Dap = NC[C@H](N)C(=O)O; CO = O=C([*:1])[*:2]
# Legend:
# [1] = target: Recombinant Human PSMA/FOLH1 Protein (Homo sapiens (Human), UniProt Q04609); test: Inhibition assay (Amplex Red glutamic acid/glutamate oxidase, NAAG substrate); format: biochemical; settings: Target PSMA, average of N replicates; for pIC50: PSMA 5 nM, NAAG 40 μM; for pKi: calculated based on Cheng-Prusoff equation
# Chain of Recombinant Human PSMA/FOLH1 Protein (Q04609 whole entry): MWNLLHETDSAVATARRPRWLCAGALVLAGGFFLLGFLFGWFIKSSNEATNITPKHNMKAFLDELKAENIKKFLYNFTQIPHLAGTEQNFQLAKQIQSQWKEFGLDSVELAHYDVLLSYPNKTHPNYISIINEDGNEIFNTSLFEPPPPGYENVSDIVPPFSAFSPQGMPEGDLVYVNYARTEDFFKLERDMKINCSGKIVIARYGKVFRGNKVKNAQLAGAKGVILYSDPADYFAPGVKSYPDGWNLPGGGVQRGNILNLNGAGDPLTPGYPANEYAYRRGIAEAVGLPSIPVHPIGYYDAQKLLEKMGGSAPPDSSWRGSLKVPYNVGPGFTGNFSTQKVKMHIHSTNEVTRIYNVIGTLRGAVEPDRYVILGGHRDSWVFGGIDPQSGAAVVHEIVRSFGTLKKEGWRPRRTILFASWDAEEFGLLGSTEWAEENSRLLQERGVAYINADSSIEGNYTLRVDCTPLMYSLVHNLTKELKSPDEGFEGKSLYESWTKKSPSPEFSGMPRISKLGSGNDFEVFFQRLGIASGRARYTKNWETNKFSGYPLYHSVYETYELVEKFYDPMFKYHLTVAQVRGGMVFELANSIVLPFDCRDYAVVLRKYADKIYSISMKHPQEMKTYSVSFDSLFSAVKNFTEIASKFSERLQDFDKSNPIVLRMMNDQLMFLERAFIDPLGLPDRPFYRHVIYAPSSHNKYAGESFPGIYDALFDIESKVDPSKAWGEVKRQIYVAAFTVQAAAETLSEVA
# Procedure: Amplex™ Red Glutamic Acid/Glutamate Oxidase Assay Kit Catalog number: A12221 (Thermofisher); Recombinant Human PSMA/FOLH1 Protein, CF (rnd systems); N-Acetyl-Asp-Glu (NAAG) (Sigma Aldrich; 96 well half area plate; Enspire plate reader.
# Prepare a working solution of 100 μM Amplex® Red reagent containing 0.25 U/mL HRP, 0.08 U/mL L-glutamate oxidase, 0.5 U/mL 1-glutamate-pyruvate transaminase, 200 μM L-alanine and keep protected from light. […] Final concentration is 5 nM. Transfer 10 μl/well of the inhibitor solution previously prepared in a separate 96 wells/plate.
# Pipette 20 μl/well of the working solution prepared above. Incubate the reactions for 30 min at 37° C., protected from light. Because the assay is continuous (not terminated), fluorescence may be measured at multiple time points to follow the kinetics of the reactions. Measure the fluorescence in a fluorescence microplate reader using excitation in the range of 530-560 nm and emission detection at ˜590 nm. Ec50s were determined with GraphPad Prism. Ki is calculated based on Cheng-Prusoff equation.
# human FOLH1 = human FOLH1 (Homo sapiens (Human), UniProt Q04609); test: SPR analysis of binding kinetics to biotinylated FOLH1 (Biacore 8K); settings: ligand PSMA; for Kon: association rate; for koff: dissociation rate
# Chain of human FOLH1 (Q04609 whole entry): as above
# Procedure: The interaction of PSMA-binding variants with human FOLH1 was measured with Surface Plasmon Resonance (SPR) technology. Biotinylated FOLH1 was captured at a concentration of 30 μg/mL onto a Streptavidin chip.
# Binding kinetics of the analytes were measured with a Biacore 8K instrument in two-fold serial dilutions starting at 500 nM down to 1.95 nM in single cycle kinetic measurements. After each cycle, needles were washed with 50% DMSO. To measure the association to the FOLH1 protein, the samples were injected with a flow rate of 30 μL/min for 90 s, followed by 1200 s buffer only to detect the dissociation. The used running buffer was 1×PBS with 0.05% Tween20 and 2% DMSO. The relative response units (RU, Y-axis) are plotted against time (s, X-axis) and analyzed in a kinetic 1:1 binding model.
# In a different setup, biotinylated FOLH1 was captured at a concentration of 0.8 μg/mL and the running buffer was 1×PBS with 0.05% Tween20.
Compound,pIC50 [1],pKi [1],Kon (human FOLH1),koff (human FOLH1)
CC(=O)NCCOCCOCCOCCC(=O)NC[C@H]1CC[C@H](C(=O)N[C@@H](Cc2ccc3ccccc3c2)C(=O)NCCCC[C@H](NC(=O)N[C@@H](Cc2cnc[nH]2)C(=O)O)C(=O)O)CC1 (stereo in doubt) [Compound 29],3.24,5.39,–,–
CC(=O)NCCOCCOCCOCCC(=O)NC[C@H]1CC[C@H](C(=O)N[C@@H](CC(C)C)C(=O)NCCCC[C@H](NC(=O)N[C@@H](CCC(=O)O)C(=O)O)C(=O)O)CC1 [Compound 1],5.62,7.77,–,–
CC(=O)NCCOCCOCCOCCC(=O)NC[C@H]1CC[C@H](C(=O)N[C@@H](Cc2ccc(O)cc2)C(=O)NCCCC[C@H](NC(=O)N[C@@H](CCC(=O)O)C(=O)O)C(=O)O)CC1 [Compound 3],6.38,8.52,–,–
CC(=O)NCCOCCOCCOCCC(=O)NC[C@H]1CC[C@H](C(=O)N[C@@H](C)C(=O)NCCCC[C@H](NC(=O)N[C@@H](CCC(=O)O)C(=O)O)C(=O)O)CC1 [Compound 4],6.27,8.42,–,–
CC(=O)NCCOCCOCCOCCC(=O)NC[C@H]1CC[C@H](C(=O)N[C@@H](CCCCN)C(=O)NCCCC[C@H](NC(=O)N[C@@H](CCC(=O)O)C(=O)O)C(=O)O)CC1 [Compound 6],4.23,6.38,–,–
CC(=O)NCCOCCOCCOCCC(=O)NC[C@H]1CC[C@H](C(=O)N[C@@H](Cc2c[nH]cn2)C(=O)NCCCC[C@H](NC(=O)N[C@@H](CCC(=O)O)C(=O)O)C(=O)O)CC1 [Compound 9],5.97,8.11,–,–
CC(=O)NCCOCCOCCOCCC(=O)NC[C@H]1CC[C@H](C(=O)N[C@@H](Cc2cn(C)cn2)C(=O)NCCCC[C@H](NC(=O)N[C@@H](CCC(=O)O)C(=O)O)C(=O)O)CC1 [Compound 11],5.49,7.64,–,–
CC(=O)NCCOCCOCCOCCC(=O)NC[C@H]1CC[C@H](C(=O)N[C@@H](Cc2ccc(F)cc2)C(=O)NCCCC[C@H](NC(=O)N[C@@H](CCC(=O)O)C(=O)O)C(=O)O)CC1 [Compound 13],6.02,8.17,–,–
CC(=O)NCCOCCOCCOCCC(=O)NC[C@H]1CC[C@H](C(=O)N[C@@H](Cc2ccc(N=[N+]=[N-])cc2)C(=O)NCCCC[C@H](NC(=O)N[C@@H](CCC(=O)O)C(=O)O)C(=O)O)CC1 [Compound 15],6.03,8.18,–,–
CC(=O)NCCOCCOCCOCCC(=O)NC[C@H]1CC[C@H](C(=O)N[C@H](Cc2ccccc2)C(=O)NCCCC[C@H](NC(=O)N[C@@H](CCC(=O)O)C(=O)O)C(=O)O)CC1 [Compound 18],6.27,8.41,–,–
CC(=O)NCCOCCOCCOCCC(=O)NC[C@H]1CC[C@H](C(=O)N[C@@H](CC2CCCCC2)C(=O)NCCCC[C@H](NC(=O)N[C@@H](CCC(=O)O)C(=O)O)C(=O)O)CC1 [Compound 19],5.67,7.81,–,–
CC(=O)NCCOCCOCCOCCC(=O)NC[C@H]1CC[C@H](C(=O)N[C@@H](CCCC(=O)O)C(=O)NCCCC[C@H](NC(=O)N[C@@H](CCC(=O)O)C(=O)O)C(=O)O)CC1 [Compound 20],5.83,7.97,–,–
CC(=O)NCCOCCOCCOCCC(=O)NC[C@H]1CC[C@H](C(=O)N[C@@H](Cc2c[nH]c3ncccc23)C(=O)NCCCC[C@H](NC(=O)N[C@@H](CCC(=O)O)C(=O)O)C(=O)O)CC1 [Compound 22],6.31,8.46,–,–
CC(=O)NCCOCCOCCOCCC(=O)NC[C@H]1CC[C@H](C(=O)N[C@@H](Cc2ccc3ccccc3c2)C(=O)NCCCC[C@H](NC(=O)N[C@@H](CC(=O)O)C(=O)O)C(=O)O)CC1 [Compound 23],–,–,291000 1.ms,0.0349 s⁻¹
CC(=O)NCCOCCOCCOCCC(=O)NC[C@H]1CC[C@H](C(=O)N[C@@H](Cc2ccc3ccccc3c2)C(=O)NCCCC[C@H](NC(=O)N[C@@H](Cc2ccc(O)cc2)C(=O)O)C(=O)O)CC1 [Compound 25],4.35,6.50,–,–
CC(=O)NCCOCCOCCOCCC(=O)NC[C@H]1CC[C@H](C(=O)N[C@@H](Cc2ccc3ccccc3c2)C(=O)NCCCC[C@H](NC(=O)N[C@@H](CC(C)C)C(=O)O)C(=O)O)CC1 [Compound 26],2.81,4.96,–,–
CSCC[C@H](NC(=O)N[C@@H](CCCCNC(=O)[C@H](Cc1ccc2ccccc2c1)NC(=O)[C@H]1CC[C@H](CNC(=O)CCOCCOCCOCCNC(C)=O)CC1)C(=O)O)C(=O)O [Compound 27],3.72,5.86,–,–

Compound,pIC50 [1],pKi [1],Kon (human FOLH1),koff (human FOLH1)
CC(=O)NCCOCCOCCOCCC(=O)NC[C@H]1CC[C@H](C(=O)N[C@@H](Cc2ccc3ccccc3c2)C(=O)NCCCC[C@H](NC(=O)N[C@@H](Cc2cccc(C(=O)O)c2)C(=O)O)C(=O)O)CC1 [Compound 30],3.22,5.37,–,–
CC(=O)NCCOCCOCCOCCC(=O)NC[C@H]1CC[C@H](C(=O)N[C@@H](Cc2ccc3ccccc3c2)C(=O)NCCCC[C@H](NC(=O)N[C@@H](Cc2ccc(C(=O)O)cc2)C(=O)O)C(=O)O)CC1 [Compound 31],3.58,5.73,–,–
CC(=O)NCCOCCOCCOCCC(=O)NC[C@H]1CC[C@H](C(=O)N[C@@H](Cc2ccc3ccccc3c2)C(=O)NCC(=O)N[C@@H](CNC(=O)N[C@@H](CCC(=O)O)C(=O)O)C(=O)O)CC1 [Compound 32] (Ac-[PEG3][Trx][2Nal]G[Dap]([CO-Glu])-OH),3.36,5.51,–,–
CC(=O)NCCOCCOCCOCCC(=O)NC[C@H]1CC[C@H](C(=O)N[C@@H](Cc2ccc3ccccc3c2)C(=O)NCCCC(=O)N[C@@H](CNC(=O)N[C@@H](CCC(=O)O)C(=O)O)C(=O)O)CC1 [Compound 33],3.23,5.38,–,–
CC(=O)NCCOCCOCCOCCC(=O)NC[C@H]1CC[C@H](C(=O)N[C@H](Cc2c[nH]cn2)C(=O)NCCCC[C@H](NC(=O)N[C@@H](CCC(=O)O)C(=O)O)C(=O)O)CC1 [Compound 42],5.65,7.80,–,–
CC(=O)NCCOCCOCCOCCC(=O)NC[C@H]1CC[C@H](C(=O)N[C@H](Cc2ccc(O)cc2)C(=O)NCCCC[C@H](NC(=O)N[C@@H](CCC(=O)O)C(=O)O)C(=O)O)CC1 [Compound 43],6.17,8.31,–,–
CC(=O)NCCOCCOCCOCCC(=O)NC[C@H]1CC[C@H](C(=O)N[C@@H](Cc2ccncc2)C(=O)NCCCC[C@H](NC(=O)N[C@@H](CCC(=O)O)C(=O)O)C(=O)O)CC1 [Compound 44],6.75,8.90,–,–
CC(=O)NCCOCCOCCOCCC(=O)NC[C@H]1CC[C@H](C(=O)N[C@@H](Cc2cscn2)C(=O)NCCCC[C@H](NC(=O)N[C@@H](CCC(=O)O)C(=O)O)C(=O)O)CC1 [Compound 45],6.26,8.40,–,–
CC(=O)NCCOCCOCCOCCC(=O)NC[C@H]1CC[C@H](C(=O)N[C@H](CC(=O)NCCCC[C@H](NC(=O)N[C@@H](CCC(=O)O)C(=O)O)C(=O)O)Cc2ccccc2)CC1 [Compound 46],6.35,8.50,–,–
CC(=O)NCCOCCOCCOCCC(=O)NC[C@H]1CC[C@H](C(=O)N[C@@H](CCCOc2cc(C#N)cc(C#N)c2)C(=O)NCCCC[C@H](NC(=O)N[C@@H](CCC(=O)O)C(=O)O)C(=O)O)CC1 [Compound 47],5.69,7.83,–,–
C#CC[C@H](NC(=O)N[C@@H](CCCCNC(=O)[C@H](Cc1ccc2ccccc2c1)NC(=O)[C@H]1CC[C@H](CNC(=O)CCOCCOCCOCCNC(C)=O)CC1)C(=O)O)C(=O)O [Compound 50],4.75,6.90,–,–
CC(=O)NCCOCCOCCOCCC(=O)N[C@@H](CCCOc1cc(C#N)cc(C#N)c1)C(=O)N[C@@H](Cc1ccc2ccccc2c1)C(=O)NCCCC[C@H](NC(=O)N[C@@H](CCC(=O)O)C(=O)O)C(=O)O [Compound 51],5.77,7.91,–,–
CC(=O)NCCOCCOCCOCCC(=O)N[C@@H](CCCOc1cc(C#N)cc(C#N)c1)C(=O)NCCC(=O)N[C@@H](Cc1ccc2ccccc2c1)C(=O)NCCCC[C@H](NC(=O)N[C@@H](CCC(=O)O)C(=O)O)C(=O)O [Compound 53],7.95,10.10,–,–
CC(=O)NCCOCCOCCOCCC(=O)N(CCCOc1cc(C#N)cc(C#N)c1)CC(=O)N[C@@H](Cc1ccc2ccccc2c1)C(=O)NCCCC[C@H](NC(=O)N[C@@H](CCC(=O)O)C(=O)O)C(=O)O [Compound 78],–,–,487000 1.ms,0.000208 s⁻¹
CC(=O)NCCOCCOCCOCCC(=O)N1C[C@H](NC(=O)CCCOc2cc(C#N)cc(C#N)c2)C[C@H]1C(=O)N[C@@H](Cc1ccc2ccccc2c1)C(=O)NCCCC[C@H](NC(=O)N[C@@H](CCC(=O)O)C(=O)O)C(=O)O [Compound 80],–,–,243000 1.ms,0.000599 s⁻¹
CC(=O)NCCOCCOCCOCCC(=O)N[C@@H](Cc1ccncc1)C(=O)NCC(=O)N[C@@H](Cc1ccc2ccccc2c1)C(=O)NCCCC[C@H](NC(=O)N[C@@H](CCC(=O)O)C(=O)O)C(=O)O [Compound 85],7.97,10.12,–,–
